Results from patent US9469556B2, “Ballast water treatment system” (University of Strathclyde, priority 2009, dated 2016).

System: organisms in sea water
Assay: ATP luminescence assay of sea samples treated with biocide dyes
Format: cell-based
Settings: for biocidal properties in sea water (total ATP levels): Millport sea samples, different concentrations
Method: Required quantities of each biocide dye were added to the tubes containing the sea sample by means of sterile pipettes in order to give the desired concentrations.
50 mL of each seawater sample was centrifuged at 4,000 rpm for 30 minutes at room temperature. The supernatant was discarded, and the pellets (which may not be visible) were resuspended in 1 mL of ATP Buffer Mix by brisk mixing with a sterile pastette. 0.1 mL of detergent solution was added to each sample. Sample tubes were then placed in a water bath at 90° C. for exactly 5 minutes to lyse seawater organisms. Alternatively the seawater organisms (from 50 mL water) are captured on a 0.22 μm filter membrane and treated with the ATP Buffer Mix, as above.
As a negative control, sterilised seawater (filtered through 0.22 μm filter and/or autoclaved) was used. Where coloured agents were added to the samples, these were also added to the negative control at the same concentration.
One aliquot (0.1 mL) of ATP Assay Mix solution was thawed and added to a sterile transparent 5 mL luminometer tube. This was swirled and allowed to stand at room temperature to allow hydrolysis of endogenous ATP and decrease background.
Immediately after 5 minutes of being at 90° C., 0.1 mL of resuspended seawater sample was added to the reaction tube, swirled briskly for 5 seconds, and immediately measured using a tube luminometer using a 4 second read time.

| SMILES | biocidal properties in sea water (total ATP levels) (with and without incubation (FIG. 3.2)) | viability of organisms in sea water (as measured by ATP presence) (dyes used separately (FIG. 4.1)) | biocidal properties in sea water (total ATP levels) (overnight incubation, with and without light (60 w for 5 minutes) (FIG. 3.3)) |
| --- | --- | --- | --- |
| CN(C)c1ccc(C(=C2C=CC(=[N+](C)C)C=C2)c2ccc(N(C)C)cc2)cc1 [Gentian Violet] | effective biocidal properties | incomplete reduction in viability |  |
| O=C1OC2(c3ccccc31)c1cc(I)c(O)c(I)c1Oc1c2cc(I)c(O)c1I [erythrosine] |  |  | effective biocidal properties |
